# According to ChEMBL document CHEMBL1201862, “PubChem BioAssay data set” (2004):
# Several values for one entry are separate records, joined by “and”; a condition that tells them apart may be missing. Equal entries are not always repeated. Activity calls are given as the source filed them.
# Columns and labels:
# cells = type: functional
# [1] = THP-1 cell cytotoxicity, dose response, cytotoxicity control for non-replicating M. tuberculosis project (AID 489025); type: functional
# [2] = HepG2 cell cytotoxicity, dose response, cytotoxicity control for non-replicating M. tuberculosis project (AID 489018); type: functional; conditions: Mycobacterium tuberculosis
# Streptokinase A = molecular target: T1, Streptokinase A (Streptococcus pyogenes serotype M1, UniProt P10520); test: viability-normalized secreted streptokinase activity reduction – plasminogen activation absorbance, OD405, dose response (AID 1914); type: functional, Streptococcus pyogenes M1 GAS;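 also: secreted streptokinase activity via plasminogen activation per viability signal from cell pellet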
# T1 sequence (P10520 whole entry): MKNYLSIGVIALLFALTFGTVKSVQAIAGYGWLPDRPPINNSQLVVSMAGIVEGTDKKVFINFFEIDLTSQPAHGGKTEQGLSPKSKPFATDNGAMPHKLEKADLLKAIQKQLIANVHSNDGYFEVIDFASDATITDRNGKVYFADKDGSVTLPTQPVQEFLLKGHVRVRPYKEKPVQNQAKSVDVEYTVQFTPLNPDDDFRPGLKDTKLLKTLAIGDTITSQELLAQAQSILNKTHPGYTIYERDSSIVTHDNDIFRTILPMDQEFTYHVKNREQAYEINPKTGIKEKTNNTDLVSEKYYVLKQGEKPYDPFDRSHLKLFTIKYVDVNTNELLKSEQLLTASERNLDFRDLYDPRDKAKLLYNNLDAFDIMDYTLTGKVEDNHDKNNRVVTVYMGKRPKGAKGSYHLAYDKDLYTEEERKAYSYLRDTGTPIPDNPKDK
# [3] = tested on: Streptococcus sp. 'group A'; test: Streptococcus pyogenes SK(-)GAS viability under kanamycin – luminescence, BacTiterGlo, confirmation, counter-screen for streptokinase expression inhibitor project, dose response (AID 1900); type: functional, organism-based
# Streptococcus = test: GAS UMAA2166 growth inhibition – luminescence, BacTiterGlo, counter-screen for streptokinase expression inhibitor project, dose response (AID 1915); type: functional, organism-based;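 also: potency for reduction of bacterial viability or growth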
# [4] = Vero E6 cell cytotoxicity, dose response, cytotoxicity control for non-replicating M. tuberculosis project, secondary assay (AID 492998); type: functional, VeroE6; conditions: Vero C1008
# Coagulation factor XII = molecular target: T2, Coagulation factor XII (Homo sapiens, UniProt P00748); type: functional;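 also: activated factor XIIa alpha cleaving a fluorogenic AMC peptide substrate; inhibitor potency from loss of enzyme activity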
# T2 sequence (P00748 whole entry): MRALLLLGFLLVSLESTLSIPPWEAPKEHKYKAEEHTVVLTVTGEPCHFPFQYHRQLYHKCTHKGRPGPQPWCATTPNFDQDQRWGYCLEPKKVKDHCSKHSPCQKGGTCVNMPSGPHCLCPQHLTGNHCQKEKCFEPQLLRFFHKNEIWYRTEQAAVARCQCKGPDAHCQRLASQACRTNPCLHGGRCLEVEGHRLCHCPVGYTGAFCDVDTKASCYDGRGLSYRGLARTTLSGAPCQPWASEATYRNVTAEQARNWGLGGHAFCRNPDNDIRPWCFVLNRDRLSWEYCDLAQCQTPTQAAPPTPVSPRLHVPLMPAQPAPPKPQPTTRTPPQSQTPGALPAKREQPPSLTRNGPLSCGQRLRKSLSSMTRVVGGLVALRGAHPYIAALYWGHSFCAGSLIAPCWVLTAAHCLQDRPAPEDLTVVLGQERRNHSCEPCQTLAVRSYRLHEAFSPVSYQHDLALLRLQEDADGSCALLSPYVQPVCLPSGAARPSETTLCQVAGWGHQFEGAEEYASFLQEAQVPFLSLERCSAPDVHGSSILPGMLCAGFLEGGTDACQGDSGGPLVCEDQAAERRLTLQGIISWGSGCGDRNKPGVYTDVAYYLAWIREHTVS
# [5] = molecular target: DNA dC->dU-editing enzyme APOBEC-3A (Homo sapiens, UniProt P31941); test: A3A deaminase inhibition for selectivity – biochemical, dose response (AID 504722); type: functional
# [6] = molecular target: DNA dC->dU-editing enzyme APOBEC-3G (Homo sapiens, UniProt Q9HC16); test: Dose Response confirmation of small molecule APOBEC3G DNA Deaminase Inhibitors via a fluorescence-based single-stranded DNA deaminase assay. [Related pubchem assays (depositor defined):AID493012, AID493028]; type: functional
# [7] = molecular target: T3, Short transient receptor potential channel 4 (Mus musculus, UniProt Q9QUQ5); test: block of DAMGO-driven TRPC4 calcium entry – cell-based, HEK293 TRPC4/mu-opioid, Fluo-4 calcium, dose response (AID 434942); type: functional;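 also: potency of inhibitors blocking the TRPC4 calcium response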
# T3 sequence (Q9QUQ5 whole entry): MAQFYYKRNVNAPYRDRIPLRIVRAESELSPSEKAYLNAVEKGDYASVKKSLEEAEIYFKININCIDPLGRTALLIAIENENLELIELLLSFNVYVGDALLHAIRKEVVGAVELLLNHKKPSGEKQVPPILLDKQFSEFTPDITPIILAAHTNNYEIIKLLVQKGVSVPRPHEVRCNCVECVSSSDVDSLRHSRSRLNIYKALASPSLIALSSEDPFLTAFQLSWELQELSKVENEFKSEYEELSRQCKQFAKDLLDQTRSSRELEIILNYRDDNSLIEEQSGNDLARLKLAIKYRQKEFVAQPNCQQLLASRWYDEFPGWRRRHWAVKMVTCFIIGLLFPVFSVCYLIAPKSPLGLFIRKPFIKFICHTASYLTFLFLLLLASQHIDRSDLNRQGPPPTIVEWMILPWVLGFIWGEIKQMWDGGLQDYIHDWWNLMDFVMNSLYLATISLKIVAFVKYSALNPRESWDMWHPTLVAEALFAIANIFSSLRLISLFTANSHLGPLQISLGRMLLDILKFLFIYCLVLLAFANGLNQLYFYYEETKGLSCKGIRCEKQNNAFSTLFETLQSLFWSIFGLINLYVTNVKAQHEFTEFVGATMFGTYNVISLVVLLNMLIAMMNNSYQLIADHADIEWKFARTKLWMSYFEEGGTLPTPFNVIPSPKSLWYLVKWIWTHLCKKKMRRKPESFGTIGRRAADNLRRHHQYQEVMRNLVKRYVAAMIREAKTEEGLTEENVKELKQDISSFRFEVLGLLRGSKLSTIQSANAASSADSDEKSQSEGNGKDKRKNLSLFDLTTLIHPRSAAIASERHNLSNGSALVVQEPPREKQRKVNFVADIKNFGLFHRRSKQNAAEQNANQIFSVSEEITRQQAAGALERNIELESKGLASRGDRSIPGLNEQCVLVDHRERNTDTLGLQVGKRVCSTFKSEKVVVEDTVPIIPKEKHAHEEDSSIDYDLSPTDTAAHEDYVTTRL
# [8] = molecular target: G-protein coupled receptor 55 (Homo sapiens, UniProt Q9Y2T6); test: inhibition of LPI-stimulated GPR55 beta-arrestin translocation – imaging, U2OS, beta-arrestin-GFP, LPI agonist, primary screen (AID 2013); type: functional;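 also: antagonist potency measured as reduced agonist-driven arrestin aggregation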
# [9] = molecular target: T4, Mannose-6-phosphate isomerase (Homo sapiens, UniProt P34949); test: MPI enzyme activity inhibition – biochemical, fluorescence intensity, coupled assay, primary screen (AID 1209)
# T4 sequence (P34949 whole entry): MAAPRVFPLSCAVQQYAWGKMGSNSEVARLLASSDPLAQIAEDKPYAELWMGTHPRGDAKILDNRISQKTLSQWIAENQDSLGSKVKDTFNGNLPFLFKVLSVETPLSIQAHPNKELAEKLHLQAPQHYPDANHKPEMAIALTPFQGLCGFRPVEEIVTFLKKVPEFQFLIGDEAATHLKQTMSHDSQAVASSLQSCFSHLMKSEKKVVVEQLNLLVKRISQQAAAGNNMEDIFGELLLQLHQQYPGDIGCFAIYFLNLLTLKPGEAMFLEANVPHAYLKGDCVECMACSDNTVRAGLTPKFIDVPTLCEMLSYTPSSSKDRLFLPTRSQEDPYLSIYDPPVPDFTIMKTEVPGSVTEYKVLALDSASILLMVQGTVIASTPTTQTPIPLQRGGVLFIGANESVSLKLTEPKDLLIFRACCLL
# [10] = molecular target: T5, Long-chain-fatty-acid--AMP ligase FadD28 (Mycobacterium tuberculosis, UniProt P9WQ59); test: Fluorescence polarization aasay to screen for inhibitors that compete for the binding of FadD28 to a bisubstrate Measured in Biochemical System Using Plate Reader - 2147-01_Inhibitor_Dose_CherryPick_Activity.; type: functional, Mycobacterium tuberculosis H37Rv
# T5 sequence (P9WQ59 whole entry): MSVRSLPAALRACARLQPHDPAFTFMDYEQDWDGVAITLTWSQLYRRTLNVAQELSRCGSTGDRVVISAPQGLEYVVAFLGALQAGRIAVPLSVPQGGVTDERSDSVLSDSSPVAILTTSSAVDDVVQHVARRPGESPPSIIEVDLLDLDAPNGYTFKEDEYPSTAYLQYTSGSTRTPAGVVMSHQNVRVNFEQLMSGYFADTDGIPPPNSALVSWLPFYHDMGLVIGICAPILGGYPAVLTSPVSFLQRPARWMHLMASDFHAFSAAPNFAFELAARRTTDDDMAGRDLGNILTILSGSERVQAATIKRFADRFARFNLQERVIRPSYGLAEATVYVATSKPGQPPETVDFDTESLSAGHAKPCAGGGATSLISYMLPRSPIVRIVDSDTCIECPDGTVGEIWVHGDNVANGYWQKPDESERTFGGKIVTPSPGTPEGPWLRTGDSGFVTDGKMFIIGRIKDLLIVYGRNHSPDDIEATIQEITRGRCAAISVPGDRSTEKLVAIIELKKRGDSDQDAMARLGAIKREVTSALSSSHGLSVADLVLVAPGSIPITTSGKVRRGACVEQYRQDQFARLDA
# [11] = molecular target: T6, Zinc finger protein mex-5 (Caenorhabditis elegans, UniProt Q9XUB2); test: potency of MEX-5 RNA-binding blockers – biochemical, C. elegans, fluorescence polarization, dose response (AID 1960)
# T6 sequence (Q9XUB2 whole entry): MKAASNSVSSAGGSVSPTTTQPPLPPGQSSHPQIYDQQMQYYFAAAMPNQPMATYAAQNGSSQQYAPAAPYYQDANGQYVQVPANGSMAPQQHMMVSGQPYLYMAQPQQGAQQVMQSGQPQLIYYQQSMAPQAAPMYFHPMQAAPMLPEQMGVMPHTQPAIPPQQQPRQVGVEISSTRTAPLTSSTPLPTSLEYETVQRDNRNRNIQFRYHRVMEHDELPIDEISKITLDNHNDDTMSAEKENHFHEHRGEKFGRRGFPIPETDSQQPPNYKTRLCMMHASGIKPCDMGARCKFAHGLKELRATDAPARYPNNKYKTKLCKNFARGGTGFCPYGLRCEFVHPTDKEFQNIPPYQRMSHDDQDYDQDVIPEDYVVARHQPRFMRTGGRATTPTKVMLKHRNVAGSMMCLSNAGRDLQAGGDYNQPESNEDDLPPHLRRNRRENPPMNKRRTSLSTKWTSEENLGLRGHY
# Protein Tat = molecular target: T7, Protein Tat (Human immunodeficiency virus type 1 group M subtype B (isolate HXB2)(HIV-1), UniProt P04608); type: functional;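 also: tat binding to TAR RNA read out by fluorescence polarization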
# T7 sequence (P04608 whole entry): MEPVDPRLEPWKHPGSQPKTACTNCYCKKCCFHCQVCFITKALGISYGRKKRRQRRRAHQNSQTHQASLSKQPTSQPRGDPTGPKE
# [12] = molecular target: Ras and Rab interactor 1/Tyrosine-protein kinase ABL1 (Homo sapiens, UniProt P00519+Q13671); type: functional;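 also: biochemical TR-FRET dose-response test measuring inhibition of binding between Rin1 and Abl proteins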
# [13] = molecular target: Eukaryotic translation initiation factor 4E (Mus musculus, UniProt P63073); test: blockers of eIF4G binding by eIF4E – biochemical, TR-FRET, dose response (AID 855); type: functional;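 also: potency for disrupting eIF4E binding to eIF4GI seen as loss of FRET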
# Nonstructural protein 1 = Nonstructural protein 1 (Influenza A virus, UniProt Q194T2); type: functional, Influenza A virus (A/California/07/2009(H1N1))
# [14] = molecular target: T8, RNA-binding protein pos-1 (Caenorhabditis elegans, UniProt G5EF15); test: disruptors of C. elegans POS-1 RNA interaction – biochemical, fluorescence polarization, dose response (AID 1964);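 also: purified POS-1 fused to maltose binding protein made in E. coli; potency of compounds blocking POS-1 binding to fluorescent RNA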
# T8 sequence (G5EF15 whole entry): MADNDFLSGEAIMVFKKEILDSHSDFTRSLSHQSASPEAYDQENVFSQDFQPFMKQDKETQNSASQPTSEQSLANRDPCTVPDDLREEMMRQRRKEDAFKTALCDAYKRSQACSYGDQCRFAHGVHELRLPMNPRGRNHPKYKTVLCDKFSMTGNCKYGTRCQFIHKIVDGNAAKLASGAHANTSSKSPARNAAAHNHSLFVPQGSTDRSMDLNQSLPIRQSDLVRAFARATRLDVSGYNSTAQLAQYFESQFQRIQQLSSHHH
# Chain of DNA dC->dU-editing enzyme APOBEC-3G (Q9HC16 whole entry): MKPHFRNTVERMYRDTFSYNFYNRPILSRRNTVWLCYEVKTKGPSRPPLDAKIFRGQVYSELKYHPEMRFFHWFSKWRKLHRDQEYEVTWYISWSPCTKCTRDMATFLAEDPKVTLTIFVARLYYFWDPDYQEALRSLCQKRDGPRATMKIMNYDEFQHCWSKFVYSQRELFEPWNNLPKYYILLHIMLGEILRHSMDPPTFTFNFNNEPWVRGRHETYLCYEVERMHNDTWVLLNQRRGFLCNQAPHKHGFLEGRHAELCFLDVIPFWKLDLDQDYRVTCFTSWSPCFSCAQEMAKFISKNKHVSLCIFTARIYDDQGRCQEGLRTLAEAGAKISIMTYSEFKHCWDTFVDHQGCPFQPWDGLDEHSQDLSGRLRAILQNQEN
# Chain of G-protein coupled receptor 55 (Q9Y2T6 whole entry): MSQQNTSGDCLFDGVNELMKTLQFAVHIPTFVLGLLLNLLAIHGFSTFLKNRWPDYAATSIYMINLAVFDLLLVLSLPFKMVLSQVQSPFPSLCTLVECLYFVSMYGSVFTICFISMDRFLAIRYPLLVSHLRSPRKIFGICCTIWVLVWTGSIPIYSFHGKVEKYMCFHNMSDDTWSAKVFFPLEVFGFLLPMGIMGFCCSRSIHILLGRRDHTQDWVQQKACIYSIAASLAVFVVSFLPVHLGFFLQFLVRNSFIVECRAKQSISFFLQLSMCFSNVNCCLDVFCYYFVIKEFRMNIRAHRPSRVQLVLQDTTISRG
# Chain of DNA dC->dU-editing enzyme APOBEC-3A (P31941 whole entry): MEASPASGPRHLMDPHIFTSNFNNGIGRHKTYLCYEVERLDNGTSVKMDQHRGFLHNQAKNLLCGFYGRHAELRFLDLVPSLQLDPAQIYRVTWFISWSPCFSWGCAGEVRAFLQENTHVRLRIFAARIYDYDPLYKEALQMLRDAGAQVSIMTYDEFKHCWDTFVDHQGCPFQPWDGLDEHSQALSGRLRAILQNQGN
# Chain of Ras and Rab interactor 1/Tyrosine-protein kinase ABL1 (P00519 whole entry): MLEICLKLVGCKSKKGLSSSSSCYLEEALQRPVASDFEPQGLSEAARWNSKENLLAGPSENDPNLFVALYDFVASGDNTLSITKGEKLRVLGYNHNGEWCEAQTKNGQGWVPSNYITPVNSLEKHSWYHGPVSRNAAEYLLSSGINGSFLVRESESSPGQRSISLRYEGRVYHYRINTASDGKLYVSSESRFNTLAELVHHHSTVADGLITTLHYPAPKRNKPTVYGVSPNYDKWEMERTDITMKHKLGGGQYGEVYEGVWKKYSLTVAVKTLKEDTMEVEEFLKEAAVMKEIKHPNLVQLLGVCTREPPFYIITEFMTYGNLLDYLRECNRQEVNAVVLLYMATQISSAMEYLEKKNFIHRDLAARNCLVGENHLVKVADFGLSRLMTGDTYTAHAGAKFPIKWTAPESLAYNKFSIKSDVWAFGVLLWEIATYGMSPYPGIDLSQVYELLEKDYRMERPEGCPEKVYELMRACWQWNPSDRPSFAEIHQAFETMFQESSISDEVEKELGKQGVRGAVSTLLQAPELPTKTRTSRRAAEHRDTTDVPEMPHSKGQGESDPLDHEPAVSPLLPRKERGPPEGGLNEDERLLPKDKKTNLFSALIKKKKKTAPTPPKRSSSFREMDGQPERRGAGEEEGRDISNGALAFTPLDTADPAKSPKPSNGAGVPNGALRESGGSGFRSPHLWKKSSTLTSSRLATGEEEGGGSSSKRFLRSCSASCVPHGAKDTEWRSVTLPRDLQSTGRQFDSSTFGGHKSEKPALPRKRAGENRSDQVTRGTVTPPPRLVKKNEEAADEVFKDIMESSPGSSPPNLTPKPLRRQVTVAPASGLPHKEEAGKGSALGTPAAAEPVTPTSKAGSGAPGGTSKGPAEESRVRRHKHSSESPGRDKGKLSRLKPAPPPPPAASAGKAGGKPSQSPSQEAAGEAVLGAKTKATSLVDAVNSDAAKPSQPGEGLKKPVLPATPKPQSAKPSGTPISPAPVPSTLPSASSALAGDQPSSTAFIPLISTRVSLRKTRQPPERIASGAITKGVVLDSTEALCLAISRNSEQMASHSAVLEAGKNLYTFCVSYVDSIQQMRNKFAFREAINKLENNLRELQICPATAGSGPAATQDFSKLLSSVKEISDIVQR
# Chain of Ras and Rab interactor 1/Tyrosine-protein kinase ABL1 (Q13671 whole entry): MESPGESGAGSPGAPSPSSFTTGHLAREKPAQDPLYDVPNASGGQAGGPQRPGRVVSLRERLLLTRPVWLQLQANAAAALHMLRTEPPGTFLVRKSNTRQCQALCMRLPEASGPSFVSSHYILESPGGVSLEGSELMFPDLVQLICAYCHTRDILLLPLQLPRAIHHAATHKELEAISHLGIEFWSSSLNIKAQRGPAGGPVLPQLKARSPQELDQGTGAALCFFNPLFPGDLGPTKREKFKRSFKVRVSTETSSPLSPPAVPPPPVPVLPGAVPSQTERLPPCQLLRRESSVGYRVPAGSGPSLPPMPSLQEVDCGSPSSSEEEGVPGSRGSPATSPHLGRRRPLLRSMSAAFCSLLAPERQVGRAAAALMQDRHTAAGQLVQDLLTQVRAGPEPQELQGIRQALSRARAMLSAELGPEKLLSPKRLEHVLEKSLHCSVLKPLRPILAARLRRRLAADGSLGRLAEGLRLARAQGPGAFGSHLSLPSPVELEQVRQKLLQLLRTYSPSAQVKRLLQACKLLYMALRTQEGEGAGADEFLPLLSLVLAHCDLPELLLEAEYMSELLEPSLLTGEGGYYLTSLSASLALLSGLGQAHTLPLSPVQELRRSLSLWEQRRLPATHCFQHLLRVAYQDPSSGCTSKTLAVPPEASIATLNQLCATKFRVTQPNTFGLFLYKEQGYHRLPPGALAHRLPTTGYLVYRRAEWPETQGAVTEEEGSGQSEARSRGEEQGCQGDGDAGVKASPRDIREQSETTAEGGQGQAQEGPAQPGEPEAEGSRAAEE
# Chain of Eukaryotic translation initiation factor 4E (P63073 whole entry): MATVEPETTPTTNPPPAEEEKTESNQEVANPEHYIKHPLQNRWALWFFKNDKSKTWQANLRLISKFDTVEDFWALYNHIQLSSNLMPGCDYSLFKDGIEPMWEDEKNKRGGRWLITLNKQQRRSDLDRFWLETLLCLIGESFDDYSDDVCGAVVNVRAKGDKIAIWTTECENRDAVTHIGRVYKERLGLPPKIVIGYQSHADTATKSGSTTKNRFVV
# Chain of Nonstructural protein 1 (Q194T2 whole entry, the tested form may be a part): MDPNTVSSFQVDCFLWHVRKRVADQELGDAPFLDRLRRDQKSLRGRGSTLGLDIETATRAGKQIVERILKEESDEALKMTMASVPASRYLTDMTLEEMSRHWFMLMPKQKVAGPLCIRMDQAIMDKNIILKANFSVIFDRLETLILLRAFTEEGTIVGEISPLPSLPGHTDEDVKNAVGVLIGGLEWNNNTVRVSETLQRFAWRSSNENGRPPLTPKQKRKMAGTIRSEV
smiles,measurement,setting,value
O=C(Nc1nnc(-c2ccncc2)o1)c1ccc(Br)s1,IC50,cells,18.3 µM (active)
same,CC50,[1],23.7 µM (active)
same,CC50,[2],19.3 µM (active)
same,EC50,Streptokinase A,> 150 µM (not active)
same,EC50,[3],3.57 µM (active)
same,EC50,Streptococcus,11.8 µM (active)
same,CC50,[4],16.8 µM (active)
Cc1nc(SCc2ccccc2)c2ccsc2n1,IC50,Coagulation factor XII,> 50 µM (inactive)
CCn1c(S)nnc1CSCc1ccccc1,IC50,[5],> 100 µM (inactive)
same,IC50,[6],8.31 µM (active)
CCOC(=O)c1c(N)sc(C(O)(C(F)(F)F)C(F)(F)F)c1-c1ccccc1,EC50,[7],7.5 µM (active)
same,IC50,[8],3.66 µM (active)
N#Cc1cnn(Cc2ccc(Cl)cc2)c1N,IC50,Coagulation factor XII,> 50 µM (inactive)
CC(C)CC(=O)NC(Oc1ccc(Cl)cc1)C(Cl)(Cl)Cl (centres undefined),IC50,[8],1.17 µM (active)
Cc1ccc(-n2c(C)cc(C3=NN=C(NC4CC4)SC3)c2C)cc1C,IC50,cells,39 µM (active)
same,CC50,[1],20 µM (active)
same,CC50,[2],> 20 µM (active)
same,CC50,[4],> 20 µM (active)
CC(=O)NC(CC(=O)OCC(=O)c1c(N)n(C)c(=O)n(C)c1=O)c1ccccc1 (centres undefined),IC50,Coagulation factor XII,> 50 µM (inactive)
Cc1c2cc(O)c(=O)cc-2oc2cc(O)c(O)cc12,IC50,[9],3.55 µM (active)
same,AC50,[10],4.65 µM (active)
same,EC50,[11],82 nM (active)
same,IC50,Protein Tat,31.3 µM (inconclusive) and > 52.2 µM (active)
same,IC50,[12],835 nM (active)
same,IC50,[13],43.3 µM (inactive)
same,IC50,Nonstructural protein 1,30.5 µM (active)
same,EC50,[14],1.9 µM (inconclusive)
Cc1cc(-c2nnc(S)n2/N=C/c2ccc(C)o2)n[nH]1,IC50,[5],> 100 µM (inactive)
same,IC50,[6],5.66 µM (active)
